Key:
[1] = system: H22 metastatic lymph nodes; experiment: Lymph node metastasis inhibition experiment; format: in vivo, Kunming mouse; conditions: popliteal lymph nodes
Procedure: Milky white and thick ascites is extracted from the H22 tumor-bearing mice, the concentration is adjusted to be 3×10^7 cells/mL, 0.05 mL of cell suspension (about 1.5×10^6 cells) is inoculated subcutaneously into the left hind foot pads of each Kunming mouse, and thus a lymph node metastasis mouse model is obtained. The mice are treated when the diameter of the tumor reaches 6-8 mm and there is no ulcer and necrosis. The mice are randomly divided into four groups (10 mice per group): a negative control group (0.9% sodium chloride injection), a nanocarbon control group, an iron preparation control group and a nanocarbon-iron suspension experimental group. 10 days after inoculation, the mice are killed, and popliteal lymph nodes are collected, weighed and fixed for pathological examination.

[2] = system: TPC-1 thyroid cancer cells; experiment: Cell experiment, cell survival rate; format: cell-based; conditions: 48 h
Procedure: (§1) Cells growing in a log phase are collected, the concentration of the cell suspension is adjusted, 100 μL of cell suspension is added to each well and the cells are plated (edge wells are filled with sterile PBS) at a density of 1×10^3-10^4 cells/well. The cells are incubated for 24 hours at 37° C. under the condition of 5% CO2, a nanocarbon-iron solution having a concentration gradient (nanocarbon content: 125, 62.5, 15.63 and 3.91 μg/mL; and ferric ion content: 13.65, 6.83, 1.71 and 0.43 μg/mL) is added, and three sub-wells are set. Then the cells are incubated for 48 hours at 37° C. under the condition of 5% CO2. 10 μL of CCK8 solution is added to each well and then the cells are continuously incubated for 2 hours. The absorbance of each well is measured at OD=450 nm with the microplate reader. In addition, a negative control group, nanocarbon control groups having the same concentration and iron preparation control groups having the same concentration are set.
as §1, with “and 1” for “100”, “of a 6-well plate” for “and the cells are plated (edge wells are filled with sterile PBS)”, “3×10^4” for “1×10^3-10^4”, “1.71,” for “1.71 and”, “The” for “10 μL of CCK8 solution is added to each well and then the”, “trypsinized and counted.” for “continuously incubated for 2 hours. The absorbance of each well is measured at OD=450 nm with the microplate reader.”

[3] = system: SKOV3 ovarian cancer cells; experiment: Cell experiment, cell survival rate; format: cell-based; conditions: 48 h
Procedure: as §1
as §1, with “and 1” for “100”, “of a 6-well plate” for “and the cells are plated (edge wells are filled with sterile PBS)”, “3×10^4” for “1×10^3-10^4”, “1.71,” for “1.71 and”, “The” for “10 μL of CCK8 solution is added to each well and then the”, “trypsinized and counted.” for “continuously incubated for 2 hours. The absorbance of each well is measured at OD=450 nm with the microplate reader.”

[4] = system: HCT116 colon cancer cells; experiment: Cell experiment, cell survival rate; format: cell-based; conditions: 48 h
Procedure: as §1
as §1, with “and 1” for “100”, “of a 6-well plate” for “and the cells are plated (edge wells are filled with sterile PBS)”, “3×10^4” for “1×10^3-10^4”, “1.71,” for “1.71 and”, “The” for “10 μL of CCK8 solution is added to each well and then the”, “trypsinized and counted.” for “continuously incubated for 2 hours. The absorbance of each well is measured at OD=450 nm with the microplate reader.”

[5] = system: murine liver cancer H22 cells; experiment: Cell experiment, cell survival rate; format: cell-based; conditions: 48 h
Procedure: as §1
as §1, with “and 1” for “100”, “of a 6-well plate” for “and the cells are plated (edge wells are filled with sterile PBS)”, “3×10^4” for “1×10^3-10^4”, “1.71,” for “1.71 and”, “The” for “10 μL of CCK8 solution is added to each well and then the”, “trypsinized and counted.” for “continuously incubated for 2 hours. The absorbance of each well is measured at OD=450 nm with the microplate reader.”

[6] = system: SGC-7901 stomach cancer cells; experiment: Cell experiment, cell survival rate; format: cell-based; conditions: 48 h
Procedure: as §1
as §1, with “and 1” for “100”, “of a 6-well plate” for “and the cells are plated (edge wells are filled with sterile PBS)”, “3×10^4” for “1×10^3-10^4”, “1.71,” for “1.71 and”, “The” for “10 μL of CCK8 solution is added to each well and then the”, “trypsinized and counted.” for “continuously incubated for 2 hours. The absorbance of each well is measured at OD=450 nm with the microplate reader.”

[7] = system: SMMC7721 liver cancer cells; experiment: Cell experiment, cell survival rate; format: cell-based; conditions: SMMC-7721, 48 h
Procedure: as §1
as §1, with “and 1” for “100”, “of a 6-well plate” for “and the cells are plated (edge wells are filled with sterile PBS)”, “3×10^4” for “1×10^3-10^4”, “1.71,” for “1.71 and”, “The” for “10 μL of CCK8 solution is added to each well and then the”, “trypsinized and counted.” for “continuously incubated for 2 hours. The absorbance of each well is measured at OD=450 nm with the microplate reader.”

[8] = iron preparation alone 0.43 μg/mL
[9] = iron preparation alone 1.71 μg/mL
[10] = iron preparation alone 6.83 μg/mL
[11] = iron preparation alone 13.65 μg/mL

## ammonium ferric citrate
[1]
  Weight of Lymph Node: 53.94 ± 11.58 mg
[2]; [8]
  Cell Survival Rate: 97.30%
[2]; [9]
  Cell Survival Rate: 96.41%
[2]; [10]
  Cell Survival Rate: 100%
[2]; [11]
  Cell Survival Rate: 100%
[3]; [8]
  Cell Survival Rate: 95.67%
[3]; [9]
  Cell Survival Rate: 99.46%
[3]; [10]
  Cell Survival Rate: 94.36%
[3]; [11]
  Cell Survival Rate: 100%
[4]; [8]
  Cell Survival Rate: 97.31%
[4]; [9]
  Cell Survival Rate: 98.12%
[4]; [10]
  Cell Survival Rate: 94.03%
[4]; [11]
  Cell Survival Rate: 95.31%
[5]; [8]
  Cell Survival Rate: 96.21%
[5]; [9]
  Cell Survival Rate: 97.64%
[5]; [10]
  Cell Survival Rate: 95.12%
[5]; [11]
  Cell Survival Rate: 100%
[6]; [8]
  Cell Survival Rate: 97.85%
[6]; [9]
  Cell Survival Rate: 95.31%
[6]; [10]
  Cell Survival Rate: 96.41%
[6]; [11]
  Cell Survival Rate: 100%
[7]; [8]
  Cell Survival Rate: 100%
[7]; [9]
  Cell Survival Rate: 98.43%

Reference: patent US11235976B2, “Nanocarbon-iron composite system as well as composition, preparation method and use thereof” (Chongqing Lummy Pharmaceutical Co., LTD, priority 2017, dated 2022)
